The Kd is a measure of binding affinity in units of concentration. Higher therefore signals lower affinity.

The results in this text go back to publication PMC6796385, “Characterizing potential repelling volatiles for “push-pull” strategy against stem borer: a case study in Chilo auricilius” (BMC Genomics, 2019).

For this assay, the target named is CSP8 (chemosensory protein 8). Description: direct fluorescence titration of purified CSP8 with the fluorescent probe, Scatchard plot. It is filed as binding, Chilo auricilius.

Compound `c1ccc(Nc2cccc3ccccc23)cc1` [1-NPN, N-phenyl-1-naphthylamine] yielded a Kd of 4 ± 0.13 µM.
